This passage reports IC50 results from patent US20230059136A1, “THE COMPOUNDS AND COMPOSITIONS FOR TREATING CONDITIONS ASSOCIATED WITH NLRP ACTIVITY” (Novartis AG, priority 2018, published 2023).

One assay has as its system IL-1β production in PMA-differentiated THP-1 cells. Briefly: IL-1β production in PMA-differentiated THP-1 cells stimulated with gramicidin (hTHP-1 assay containing 2% fetal bovine serum). The assay is classed as cell-based, human. Particulars: Homo sapiens, THP-1, Table B1; 2% fetal bovine serum; cells printed as numeric bound; read-out: hTHP-1 IC50 (Average IC50 of compounds in hTHP-1 assay). The procedure:
Procedure 1: IL-1β Production in PMA-Differentiated THP-1 Cells Stimulated with Gramicidin.
THP-1 cells were purchased from the American Type Culture Collection and sub-cultured according to instructions from the supplier. Cells were cultured in complete RPMI 1640 (containing 10% heat inactivated FBS, penicillin (100 units/ml) and streptomycin (100 μg/ml)), and maintained in log phase prior to experimental setup. Prior to the experiment, compounds were dissolved in dimethyl sulfoxide (DMSO) to generate a 30 mM stock. The compound stock was first pre-diluted in DMSO to 3, 0.34, 0.042 and 0.0083 mM intermediate concentrations and subsequently spotted using Echo550 liquid handler into an empty 384-well assay plate to achieve desired final concentration (e.g. 100, 33, 11, 3.7, 1.2, 0.41, 0.14, 0.046, 0.015, 0.0051, 0.0017 μM). DMSO was backfilled in the plate to achieve a final DMSO assay concentration of 0.37%. The plate was then sealed and stored at room temperature until required.
THP-1 cells were treated with PMA (Phorbol 12-myristate 13-acetate) (20 ng/ml) for 16-18 hours. On the day of the experiment the media was removed and adherent cells were detached with trypsin for 5 minutes. Cells were then harvested, washed with complete RPMI 1640, spun down, and resuspended in RPMI 1640 (containing 2% heat inactivated FBS, penicillin (100 units/ml) and streptomycin (100 μg/ml). The cells were plated in the 384-well assay plate containing the spotted compounds at a density of 50,000 cells/well (final assay volume 50 μl). Cells were incubated with compounds for 1 hour and then stimulated with gramicidin (5 μM) (Enzo) for 2 hours. Plates were then centrifuged at 340 g for 5 min. Cell free supernatant (40 μL) was collected using a 96-channel PlateMaster (Gilson) and the production of IL-1β was evaluated by HTRF (cisbio). The plates were incubated for 18 h at 4° C. and read using the preset HTRF program (donor emission at 620 nm, acceptor emission at 668 nm) of the SpectraMax i3x spectrophotometer (Molecular Devices, software SoftMax 6). A vehicle only control and a dose titration of CRID3 (100-0.0017 μM) were run concurrently with each experiment.
Procedure 2: IL-1β Production in PMA-Differentiated THP-1 Cells Stimulated with Gramicidin.
THP-1 cells were purchased from the American Type Culture Collection and sub-cultured according to instructions from the supplier. Prior to experiments, cells were cultured in complete RPMI 1640 (containing 10% heat inactivated FBS, penicillin (100 units/ml) and streptomycin (100 μg/ml)), and maintained in log phase prior to experimental setup. Prior to the experiment THP-1 were treated with PMA (Phorbol 12-myristate 13-acetate) (20 ng/ml) for 16-18 hours. Compounds were dissolved in dimethyl sulfoxide (DMSO) to generate a 30 mM stock. On the day of the experiment the media was removed and adherent cells were detached with trypsin for 5 minutes. Cells were then harvested, washed with complete RPMI 1640, spun down, resuspended in RPMI 1640 (containing 2% heat inactivated FBS, penicillin (100 units/ml) and streptomycin (100 μg/ml). The cells were plated in a 384-well plate at a density of 50,000 cells/well (final assay volume 50 μl). Compounds were first dissolved in assay medium to obtain a 5× top concentration of 500 μM. 10 step dilutions (1:3) were then undertaken in assay medium containing 1.67% DMSO. 5× compound solutions were added to the culture medium to achieve desired final concentration (e.g. 100, 33, 11, 3.7, 1.2, 0.41, 0.14, 0.046, 0.015, 0.0051, 0.0017 μM). Final DMSO concentration was at 0.37%. Cells were incubated with compounds for 1 hour and then stimulated with gramicidin (5 μM) (Enzo) for 2 hours. Plates were then centrifuged at 340 g for 5 min. Cell free supernatant (40 μL) was collected using a 96-channel PlateMaster (Gilson) and the production of IL-1β was evaluated by HTRF (cisbio). A vehicle only control and a dose titration of CRID3 (100-0.0017 μM) were run concurrently with each experiment. […]
Regarding `CC(C)c1cc(F)cc(C(C)C)c1C(C)C(=O)N=S(N)(=O)c1cnc(C(C)(C)O)s1` (racemic) [Example 193, (S, S) and (S, R)-N-(amino (2-(2-hydroxypropan-2-yl)thiazol-5-yl)(oxo)-λ^6-sulfaneylidene)-2-(4-fluoro-2,6-diisopropylphenyl) propanamide], the IC50 is above 30 µM.

Still in this assay, the particulars now being: Homo sapiens, THP-1, Table B1; 2% fetal bovine serum; class symbols; read-out: hTHP-1 IC50 (Average IC50 of compounds in hTHP-1 assay).
`CC(C)c1cc(F)cc(C(C)C)c1CC(=O)NS(=N)(=O)c1ccc(C(C)(C)O)cc1` (single isomer, unassigned) [Example 2]: the IC50 is 1 to 5 µM.

In the case of `CC(C)c1cc(F)cc(C(C)C)c1CC(=O)NS(=N)(=O)c1ncc(C(C)(C)O)s1` (single isomer, unassigned) [Example 9], the IC50 lay in the range of 0.2 to 1 µM.

The assay is the same for the next values; noted with them: Homo sapiens, THP-1, Table B2; 2% fetal bovine serum; cells printed as numeric bound; read-out: hTHP-1 IC50 (Average IC50 of compounds in hTHP-1 assay).
Take `CNCc1ccc(S(N)(=O)=NC(=O)Cc2c(-c3ccccc3)ccc3c2CCC3)cc1` (racemic) [Example 380, (R) and (S)—N-(amino(4-((methylamino)methyl)phenyl)(oxo)-λ^6-sulfaneylidene)-2-(5-phenyl-2,3-dihydro-1H-inden-4-yl)acetamide]: the IC50 was above 30 µM.

Consider `COc1ccc(C(C)(C)O)cc1S(N)(=O)=NC(=O)Cc1c(C(C)C)cc(C#N)cc1C(C)C` (racemic) [Example 388, (R) and (S)—N-(amino(5-(2-hydroxypropan-2-yl)-2-methoxyphenyl)(oxo)-λ^6-sulfaneylidene)-2-(4-cyano-2,6-diisopropylphenyl)acetamide], for which the IC50 is above 30 µM.

Still in this assay, the particulars now being: Homo sapiens, THP-1, Table B2; 2% fetal bovine serum; class symbols; read-out: hTHP-1 IC50 (Average IC50 of compounds in hTHP-1 assay).
On to `CNCc1ccc(S(N)(=O)=NC(=O)Cc2c(-c3ccccc3)ccc3c2CCC3)cc1` (racemic) [Example 381, (R) and (S)—N-(amino(4-((methylamino)methyl)phenyl)(oxo)-λ^6-sulfaneylidene)-2-(5-phenyl-2,3-dihydro-1H-inden-4-yl)acetamide], for which the IC50 lay in the range of 5 to 30 µM.

`COc1ccc(C(C)(C)O)cc1S(N)(=O)=NC(=O)Cc1c(C(C)C)cc(C#N)cc1C(C)C` (racemic) [Example 387, (R) and (S)—N-(amino(5-(2-hydroxypropan-2-yl)-2-methoxyphenyl)(oxo)-λ^6-sulfaneylidene)-2-(4-cyano-2,6-diisopropylphenyl)acetamide]: the IC50 lay in the range of 5 to 30 µM.

The same assay, now with this note: Table B1; 2% fetal bovine serum; class symbols; read-out: hTHP-1 IC50 (Average IC50 of compounds in hTHP-1 assay).
For the molecule “2-(4-Fluoro-2,6-diisopropylphenyl)-N-(4-(2-hydroxypropan-2-yl)phenylsulfonimidoyl)acetamide [Example 1]”, the IC50 was 5 to 30 µM.

Regarding `CC(C)c1cc(C#N)c(F)c(C(C)C)c1CC(=O)N=S(N)(=O)c1ncc(C(C)(C)O)s1` (single isomer, unassigned) [Example 42], the IC50 is 0.04 to 0.2 µM.

Consider `CC(C)c1cc(C#N)c(F)c(C(C)C)c1CC(=O)N=S(N)(=O)c1ncc(C(C)(C)O)s1` (single isomer, unassigned) [Example 43], for which the IC50 was 1 to 5 µM.

Turning to `CC(C)c1cc(C#N)c(F)c(C(C)C)c1CC(=O)N=S(N)(=O)c1sc(C(C)(C)O)cc1F` (single isomer, unassigned) [Example 44, (S)- or (R)-2-(4-cyano-3-fluoro-2,6-diisopropylphenyl)-N-(3-fluoro-5-(2-hydroxypropan-2-yl)thiophen-2-ylsulfonimidoyl)acetamide], the IC50 was in the range of 0.04 to 0.2 µM.

As to `CC(C)c1cc(C#N)c(F)c(C(C)C)c1CC(=O)N=S(N)(=O)c1sc(C(C)(C)O)cc1F` (single isomer, unassigned) [Example 45, (R)- or (S)-2-(4-cyano-3-fluoro-2,6-diisopropylphenyl)-N-(3-fluoro-5-(2-hydroxypropan-2-yl)thiophen-2-ylsulfonimidoyl)acetamide], the IC50 lay within 1 to 5 µM.

As to `CC(C)c1cc(OC(F)F)cc(C(C)C)c1CC(=O)N=S(N)(=O)c1cnc(C(C)(C)O)s1` (single isomer, unassigned) [Example 48, (S)- or (R)-2-(4-(difluoromethoxy)-2,6-diisopropylphenyl)-N-(2-(2-hydroxypropan-2-yl)thiazol-5-ylsulfonimidoyl)acetamide], the IC50 was in the range of 0.04 to 0.2 µM.

As for `CC(C)c1cc(OC(F)F)cc(C(C)C)c1CC(=O)N=S(N)(=O)c1cnc(C(C)(C)O)s1` (single isomer, unassigned) [Example 49, (R)- or (S)-2-(4-(difluoromethoxy)-2,6-diisopropylphenyl)-N-(2-(2-hydroxypropan-2-yl)thiazol-5-ylsulfonimidoyl)acetamide], the IC50 was 5 to 30 µM.

The assay is the same for the next values; noted with them: Table B2; 2% fetal bovine serum; class symbols; read-out: hTHP-1 IC50 (Average IC50 of compounds in hTHP-1 assay).
With `CC(C)c1cc2c(c(C(C)C)c1CC(=O)N=S(N)(=O)c1ccn(CCO)n1)OC(F)(F)O2` (racemic) [Example 348, (R) and (S)—N-(amino(1-(2-hydroxyethyl)-1H-pyrazol-3-yl)(oxo)-λ^6-sulfaneylidene)-2-(2,2-difluoro-4,6-diisopropylbenzo[d][1,3]dioxol-5-yl)acetamide], the IC50 fell in the range of 0.2 to 1 µM.

`CC(C)c1cc2c(c(C(C)C)c1CC(=O)N=S(N)(=O)c1ccn(CCO)n1)OC(F)(F)O2` (racemic) [Example 349, (R) and (S)—N-(amino(1-(2-hydroxyethyl)-1H-pyrazol-3-yl)(oxo)-λ^6-sulfaneylidene)-2-(2,2-difluoro-4,6-diisopropylbenzo[d][1,3]dioxol-5-yl)acetamide]: the IC50 was in the range of 5 to 30 µM.

`CC(C)c1cc(C#N)c(F)c(C(C)C)c1CC(=O)N=S(N)(=O)c1sc(C(C)(C)O)nc1CO` (racemic) [Example 352, (S) and (R)—N-(amino(4-(hydroxymethyl)-2-(2-hydroxypropan-2-yl)thiazol-5-yl)(oxo)-λ^6-sulfaneylidene)-2-(4-cyano-3-fluoro-2,6-diisopropylphenyl)acetamide]: the IC50 lay in the range of 0.2 to 1 µM.

Take `CC(C)c1cc(C#N)c(F)c(C(C)C)c1CC(=O)N=S(N)(=O)c1sc(C(C)(C)O)nc1CO` (racemic) [Example 353, (S) and (R)—N-(amino(4-(hydroxymethyl)-2-(2-hydroxypropan-2-yl)thiazol-5-yl)(oxo)-λ^6-sulfaneylidene)-2-(4-cyano-3-fluoro-2,6-diisopropylphenyl)acetamide]: the IC50 is 5 to 30 µM.

Take `CC(C)c1cc(F)cc(C(C)C)c1CC(=O)N=S(N)(=O)c1sc(C(C)(C)O)nc1CO` (racemic) [Example 356, (R) and (S)—N-(amino(4-(hydroxymethyl)-2-(2-hydroxypropan-2-yl)thiazol-5-yl)(oxo)-λ^6-sulfaneylidene)-2-(4-fluoro-2,6-diisopropylphenyl)acetamide]: the IC50 lay within 0.2 to 1 µM.

On to `CC(C)c1cc(F)cc(C(C)C)c1CC(=O)N=S(N)(=O)c1sc(C(C)(C)O)nc1CO` (racemic) [Example 357, (R) and (S)—N-(amino(4-(hydroxymethyl)-2-(2-hydroxypropan-2-yl)thiazol-5-yl)(oxo)-λ^6-sulfaneylidene)-2-(4-fluoro-2,6-diisopropylphenyl)acetamide], for which the IC50 lay within 5 to 30 µM.

Broadly, the IC50 is the concentration that inhibits the measured activity by half.
